Molecular target: High affinity nerve growth factor receptor (Homo sapiens, UniProt P04629)
Test: Kinase Activity Assay: TrkA kinase activity was measured as the ability of the enzyme to phosphorylate a fluorescently labeled peptide substrate. Buffer salts, reagents, and fluorescently labeled peptides were purchased from Carna Biosciences and were of the highest quality available (QSS Assist TRKA_MSA Kit). Enzyme was purchased from Cell Signaling, and was used without further purification. 384-well round bottom assay plates were prepared by the addition of 200 nl of a DMSO solution of compound at various concentrations to final inhibitor concentrations ranging from 100 μM to […]. Next, assay buffer (10 μl) containing substrate and ATP were added, followed by addition of 10 μl of enzyme in assay buffer. Final assays concentrations were: [E]=0.37 nM, [S]=1 μM, [ATP]=2 mM. The reactions were incubated at room temperature for 3 hours resulting in approximately 15% substrate phosphorylation and were terminated by the addition of 5 μl of stop buffer.

Sequence of High affinity nerve growth factor receptor (P04629 whole entry): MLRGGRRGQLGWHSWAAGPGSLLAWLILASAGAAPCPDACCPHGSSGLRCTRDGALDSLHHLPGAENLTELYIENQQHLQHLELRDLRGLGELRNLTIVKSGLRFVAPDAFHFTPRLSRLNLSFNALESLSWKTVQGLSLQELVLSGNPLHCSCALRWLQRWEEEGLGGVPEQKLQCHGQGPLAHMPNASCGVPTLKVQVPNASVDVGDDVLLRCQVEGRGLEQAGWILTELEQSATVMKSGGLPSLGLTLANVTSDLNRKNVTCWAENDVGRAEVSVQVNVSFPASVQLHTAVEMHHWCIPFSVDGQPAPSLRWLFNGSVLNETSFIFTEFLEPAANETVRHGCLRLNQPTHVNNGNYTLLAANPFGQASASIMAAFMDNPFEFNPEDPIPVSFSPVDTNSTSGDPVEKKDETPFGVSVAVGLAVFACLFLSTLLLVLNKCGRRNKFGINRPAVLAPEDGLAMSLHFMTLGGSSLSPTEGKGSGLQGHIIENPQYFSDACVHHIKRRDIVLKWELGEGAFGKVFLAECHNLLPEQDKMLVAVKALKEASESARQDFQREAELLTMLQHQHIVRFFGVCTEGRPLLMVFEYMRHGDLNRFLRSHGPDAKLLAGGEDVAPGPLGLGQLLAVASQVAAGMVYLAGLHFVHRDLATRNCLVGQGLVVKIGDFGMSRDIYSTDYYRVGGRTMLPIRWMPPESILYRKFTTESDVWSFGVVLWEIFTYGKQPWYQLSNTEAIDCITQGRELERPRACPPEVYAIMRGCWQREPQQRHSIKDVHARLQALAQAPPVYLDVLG

Row | EC50 | Structure (SMILES)
1 | 119 nM | CC(C)N(Cc1cccc(-c2nccs2)c1)C(=O)Nc1ccc(OC(F)(F)F)cc1
2 | 24.9 nM | CC(C)N(Cc1n[nH]c2ncccc12)C(=O)Nc1ccc(SC(F)(F)F)cc1
3 | 48 nM | C#CC(C)N(Cc1cccc(-c2nccs2)c1)C(=O)Nc1ccc(OC(F)(F)F)cc1 (configuration not stated)
4 | 8080 nM | CC(C)N(Cc1cc(-c2nccs2)ccn1)C(=O)Nc1ccc(OC(F)(F)F)cc1
5 | 102 nM | CC(C)N(Cc1cccc(-c2nccs2)c1)C(=O)Nc1cnc(C(C)(C)C)nc1
6 | 19.7 nM | CC1(C)CCN(c2ccc(SC(F)(F)F)cc2)C(=O)N1Cc1c[nH]c2ncccc12
7 | 141 nM | CC(C)N(Cc1n[nH]c2ncccc12)C(=O)Nc1ccc(OC(F)(F)F)cc1

Reference: ChEMBL document CHEMBL3886351, “TrkA kinase inhibitors, compositions and methods thereof” (2015)
